Measurements: the supplement of paper PMC11061612

What was measured:
Alisertib = compound: COc1cc(Nc2ncc3c(n2)-c2ccc(Cl)cc2C(c2c(F)cccc2OC)=NC3)ccc1C(=O)O [Alisertib]; details: max 10 µM
Procedure, shortened: (§1)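 Cancer cell lines were plated in 1536-well plates in 7.5 μl of DMEM/F12 or RPMI with 10% FBS and kept 24 hours at 37°C and 5% CO2 before 72 hours of dosing, with final DMSO typically 0.2%. CellTiter-Glo 2.0 luminescence measured viability, scaled between blank-well and DMSO-well means. Dose responses were fitted to a two-parameter logistic curve with a non-linear mixed effects model. This fit gives the single-agent IC50.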

SRA737 = compound: N#Cc1cnc(Nc2cc(NC[C@H]3CNCCO3)c(C(F)(F)F)cn2)cn1 [SRA737]; details: max 10 µM
Procedure, shortened: as §1

AZD0156 = compound: CN(C)CCCOc1ccc(-c2ccc3ncc4c(c3c2)n(C2CCOCC2)c(=O)n4C)cn1 [AZD0156]; details: max 3 µM
Procedure, shortened: as §1

Lapatinib = compound: CS(=O)(=O)CCNCc1ccc(-c2ccc3ncnc(Nc4ccc(OCc5cccc(F)c5)c(Cl)c4)c3c2)o1 [Lapatinib]; details: max 10 µM
Procedure, shortened: as §1

Gemcitabine = compound: Nc1ccn([C@@H]2O[C@H](CO)[C@@H](O)C2(F)F)c(=O)n1 [Gemcitabine]; details: max 0.3 µM
Procedure, shortened: as §1

AZD2811 = compound: CCN(CCO)CCCOc1ccc2c(Nc3cc(CC(=O)Nc4cccc(F)c4)[nH]n3)ncnc2c1 [AZD2811]; details: max 1 µM
Procedure, shortened: as §1

Doxorubicin = compound: COc1cccc2c1C(=O)c1c(O)c3c(c(O)c1C2=O)C[C@@](O)(C(=O)CO)C[C@@H]3O[C@H]1C[C@H](N)[C@H](O)[C@H](C)O1 [Doxorubicin]; details: max 1 µM
Procedure, shortened: as §1

Taselisib = compound: Cc1nc(-c2cn3c(n2)-c2ccc(-c4cnn(C(C)(C)C(N)=O)c4)cc2OCC3)n(C(C)C)n1 [Taselisib]; details: max 10 µM
Procedure, shortened: as §1

AZD8186 = compound: C[C@@H](Nc1cc(F)cc(F)c1)c1cc(C(=O)N(C)C)cc2c(=O)cc(N3CCOCC3)oc12 [AZD8186]; details: max 10 µM
Procedure, shortened: as §1

Etoposide = compound: COc1cc([C@@H]2c3cc4c(cc3[C@@H](O[C@@H]3O[C@@H]5CO[C@@H](C)O[C@H]5[C@H](O)[C@H]3O)[C@H]3COC(=O)[C@H]23)OCO4)cc(OC)c1O [Etoposide]; details: max 10 µM
Procedure, shortened: as §1

Prexasertib = compound: COc1cccc(OCCCN)c1-c1cc(Nc2cnc(C#N)cn2)n[nH]1 [Prexasertib]; details: max 1 µM
Procedure, shortened: as §1

Savolitinib = compound: C[C@@H](c1ccc2nccn2c1)n1nnc2ncc(-c3cnn(C)c3)nc21 [Savolitinib]; details: max 1 µM
Procedure, shortened: as §1

Crizotinib = compound: C[C@@H](Oc1cc(-c2cnn(C3CCNCC3)c2)cnc1N)c1c(Cl)ccc(F)c1Cl [Crizotinib]; details: max 10 µM
Procedure, shortened: as §1

Paclitaxel = compound: CC(=O)O[C@H]1C(=O)[C@@]2(C)[C@H]([C@H](OC(=O)c3ccccc3)[C@]3(O)C[C@H](OC(=O)[C@H](O)[C@@H](NC(=O)c4ccccc4)c4ccccc4)C(C)=C1C3(C)C)[C@]1(OC(C)=O)CO[C@@H]1C[C@@H]2O [Paclitaxel]; details: max 3 µM
Procedure, shortened: as §1

Carboplatin = compound: C1CC(C1)(C(=O)[O-])C(=O)[O-].N.N.[Pt+2] [Carboplatin]; details: max 10 µM
Procedure, shortened: as §1

[1] = compound: O=C(Nc1ccc2[nH]nc(-c3ccncc3)c2c1)[C@@H]1CCN(CC(=O)N2CCN(c3ccc(-c4ncccn4)cc3)CC2)C1; details: max 5 µM
Procedure, shortened: as §1

Trametinib = compound: CC(=O)Nc1cccc(-n2c(=O)n(C3CC3)c(=O)c3c(Nc4ccc(I)cc4F)n(C)c(=O)c(C)c32)c1 [Trametinib]; details: max 1 µM
Procedure, shortened: as §1

5-Fluorouracil = compound: O=c1[nH]cc(F)c(=O)[nH]1 [5-Fluorouracil]; details: max 20 µM
Procedure, shortened: as §1

SN-38 = compound: CCc1c2c(nc3ccc(O)cc13)-c1cc3c(c(=O)n1C2)COC(=O)[C@]3(O)CC [SN-38]; details: max 0.3 µM
Procedure, shortened: as §1

Venetoclax = compound: CC1(C)CCC(CN2CCN(c3ccc(C(=O)NS(=O)(=O)c4ccc(NCC5CCOCC5)c([N+](=O)[O-])c4)c(Oc4cnc5[nH]ccc5c4)c3)CC2)=C(c2ccc(Cl)cc2)C1 [Venetoclax]; details: max 1 µM
Procedure, shortened: as §1

AZD4320 = compound: CN(CC[C@H](CSC1=CC=CC=C1)NC2=C(C=C(C=C2)S(=O)(=O)NC(=O)C3=CC=C(C=C3)N4CCC(CC4)[C@H](C5=CC=CC=C5C6=CC=C(C=C6)Cl)O)S(=O)(=O)C(F)(F)F)CCO [AZD4320]; details: max 1 µM
Procedure, shortened: as §1

Selumetinib = compound: Cn1cnc2c(F)c(Nc3ccc(Br)cc3Cl)c(C(=O)NOCCO)cc21 [Selumetinib]; details: max 10 µM
Procedure, shortened: as §1

AZD1390 = compound: CC(C)n1c(=O)n(C)c2cnc3cc(F)c(-c4ccc(OCCCN5CCCCC5)nc4)cc3c21 [AZD1390]; details: max 0.3 µM
Procedure, shortened: as §1

Olaparib = compound: O=C(c1cc(Cc2n[nH]c(=O)c3ccccc23)ccc1F)N1CCN(C(=O)C2CC2)CC1 [Olaparib]; details: max 10 µM
Procedure, shortened: as §1

MK-2206 = compound: NC1(c2ccc(-c3nc4ccn5c(=O)[nH]nc5c4cc3-c3ccccc3)cc2)CCC1 [MK-2206]; details: max 10 µM
Procedure, shortened: as §1

AZD7648 = compound: Cc1cc2ncnn2cc1Nc1ncc2c(n1)n(C1CCOCC1)c(=O)n2C [AZD7648]; details: max 10 µM
Procedure, shortened: as §1

AZD5363 = compound: C1CN(CCC1(C(=O)N[C@@H](CCO)C2=CC=C(C=C2)Cl)N)C3=NC=NC4=C3C=CN4 [AZD5363]; details: max 10 µM
Procedure, shortened: as §1

Dasatinib = compound: CC1=C(C(=CC=C1)Cl)NC(=O)C2=CN=C(S2)NC3=CC(=NC(=N3)C)N4CCN(CC4)CCO [Dasatinib]; details: max 2 µM
Procedure, shortened: as §1

AZD5153 = compound: COc1nnc2ccc(N3CCC(c4ccc(OCCN5CCN(C)C(=O)[C@H]5C)cc4)CC3)nn12 [AZD5153]; details: max 1 µM
Procedure, shortened: as §1

Gefitinib = compound: COc1cc2ncnc(Nc3ccc(F)c(Cl)c3)c2cc1OCCCN1CCOCC1 [Gefitinib]; details: max 10 µM
Procedure, shortened: as §1

SG3199 = compound: CC1=CN2[C@@H](C1)C=NC3=CC(=C(C=C3C2=O)OC)OCCCCCOC4=C(C=C5C(=C4)N=C[C@@H]6CC(=CN6C5=O)C)OC [SG3199]; details: max 0.001 µM
Procedure, shortened: as §1

AZD1775 = compound: C=CCn1c(=O)c2cnc(Nc3ccc(N4CCN(C)CC4)cc3)nc2n1-c1cccc(C(C)(C)O)n1 [AZD1775]; details: max 3 µM
Procedure, shortened: as §1

AZD5991 = compound: Cc1c2c(nn1C)CSCc1cc(n(C)n1)CSc1cc(c3ccccc3c1)OCCCc1c(C(=O)O)n(C)c3c-2c(Cl)ccc13 [AZD5991]; details: max 1 µM
Procedure, shortened: as §1

AZD6738 = compound: C[C@@H]1COCCN1C2=NC(=NC(=C2)C3(CC3)[S@](=N)(=O)C)C4=C5C=CNC5=NC=C4 [AZD6738]; details: max 10 µM
Procedure, shortened: as §1

Palbociclib = compound: CC(=O)c1c(C)c2cnc(Nc3ccc(N4CCNCC4)cn3)nc2n(C2CCCC2)c1=O [Palbociclib]; details: max 10 µM
Procedure, shortened: as §1

Cell Line | IC50, cell viability 72 h (Alisertib) | IC50, cell viability 72 h (SRA737) | IC50, cell viability 72 h (AZD0156) | IC50, cell viability 72 h (Lapatinib) | IC50, cell viability 72 h (Gemcitabine) | IC50, cell viability 72 h (AZD2811) | IC50, cell viability 72 h (Doxorubicin) | IC50, cell viability 72 h (Taselisib) | IC50, cell viability 72 h (AZD8186) | IC50, cell viability 72 h (Etoposide) | IC50, cell viability 72 h (Prexasertib) | IC50, cell viability 72 h (Savolitinib) | IC50, cell viability 72 h (Crizotinib) | IC50, cell viability 72 h (Paclitaxel) | IC50, cell viability 72 h (Carboplatin) | IC50, cell viability 72 h [1] | IC50, cell viability 72 h (Trametinib) | IC50, cell viability 72 h (5-Fluorouracil) | IC50, cell viability 72 h (SN-38) | IC50, cell viability 72 h (Venetoclax) | IC50, cell viability 72 h (AZD4320) | IC50, cell viability 72 h (Selumetinib) | IC50, cell viability 72 h (AZD1390) | IC50, cell viability 72 h (Olaparib) | IC50, cell viability 72 h (MK-2206) | IC50, cell viability 72 h (AZD7648) | IC50, cell viability 72 h (AZD5363) | IC50, cell viability 72 h (Dasatinib) | IC50, cell viability 72 h (AZD5153) | IC50, cell viability 72 h (Gefitinib) | IC50, cell viability 72 h (SG3199) | IC50, cell viability 72 h (AZD1775) | IC50, cell viability 72 h (AZD5991) | IC50, cell viability 72 h (AZD6738) | IC50, cell viability 72 h (Palbociclib)
K-562 (Chronic Myelogenous Leukemia) | 4680 nM | 4120 nM | > 3000 nM | > 10000 nM | > 300 nM | > 1000 nM | > 1000 nM | > 10000 nM | > 10000 nM | > 10000 nM | 19.5 nM | > 1000 nM | 2110 nM | 34.1 nM | > 10000 nM | > 5000 nM | > 1000 nM | > 20000 nM | 112 nM | > 1000 nM | > 1000 nM | > 10000 nM | > 300 nM | > 10000 nM | > 10000 nM | > 10000 nM | > 10000 nM | 22.3 nM | > 1000 nM | > 10000 nM | > 1 nM | 624 nM | > 1000 nM | 4140 nM | > 10000 nM
WIL2-NS (Non-Cancerous) | 927 nM | 1730 nM | > 3000 nM | > 10000 nM | 7.8 nM | > 1000 nM | 105 nM | 6950 nM | > 10000 nM | 375 nM | 6.04 nM | > 1000 nM | > 10000 nM | 10.7 nM | > 10000 nM | > 5000 nM | > 1000 nM | > 20000 nM | 4.65 nM | > 1000 nM | > 1000 nM | > 10000 nM | > 300 nM | > 10000 nM | 6090 nM | > 10000 nM | 2380 nM | 1350 nM | 44.8 nM | > 10000 nM | > 1 nM | 231 nM | > 1000 nM | 1260 nM | 629 nM
L-540 (Hodgkin's Lymphoma) | 3880 nM | 2460 nM | > 3000 nM | > 10000 nM | 7.55 nM | > 1000 nM | 157 nM | > 10000 nM | > 10000 nM | 779 nM | 8.45 nM | > 1000 nM | 6590 nM | 39.3 nM | > 10000 nM | > 5000 nM | > 1000 nM | 835 nM | 2.77 nM | > 1000 nM | > 1000 nM | > 10000 nM | > 300 nM | > 10000 nM | > 10000 nM | > 10000 nM | > 10000 nM | > 2000 nM | 104 nM | > 10000 nM | > 1 nM | 299 nM | 99.8 nM | 761 nM | > 10000 nM
